From patent US10507216B2, “Method for olfactory improvement with saccharide” (priority 2017, dated 2019)

Key:
[1] = system: rat olfactory neuroepithelial cells (ONCs); test: Western blot analysis of rat ONCs (βIII tubulin, OMP, Golf, ADCY3 relative to GAPDH); format: cell-based; details: day 9
Method: Olfactory neuroepithelia of rats were isolated from E17 embryos of wistar rats and 40 embryos per trial were used. After isolation, olfactory neuroepithelia were digested in Hanks' balanced salt solution (Roche Molecular Biochemicals, Indianapolis, Ind., USA) containing 0.125% Trypsin/EDTA for 30 minutes at 37° C. The cell suspension was then filtered through a 70 μm cell strainer to eliminate cell aggregates and debris, and adjusted to 24×10^4 cells/mL (equivalent to 5×10^4 cells/cm^2). Finally, a 2 mL cell suspension was added to six-wells coated with 0.85 μg/cm^2 poly-L-lysine (PLL). ONCs were cultured at 37° C. in a humidified 5% CO2 and 95% air atmosphere. Cell morphology was observed under an inverse phase contrast microscope (TS-100, Nikon, Tokyo, Japan) and scanning electron microscope (Hitachi S-4800).
ONC medium comprised DMEM/F12 (Invitrogen), 20 ng/mL bFGF, 20 ng/mL EGF, 2% B27 and 1% penicillin/streptomycin. To prepare the chitosan-containing medium for administration groups, chitosan (C-3646, Sigma, St. Louis, Mo.) was mixed with culture medium (0.1 mg/mL), and adjusted to pH 7.2 with NaOH. Particularly, chitosan solution was prepared by dissolving chitosan in 0.5 M acetic acid.
ONC lysates were obtained from individual culture wells using a RIPA lysis buffer containing protease inhibitor cocktail tablets (Roche Diagnostics GmbH). These samples were then denatured and separated by 12% SDS-PAGE gels, and blotted onto PVDF membranes (Millipore). After blocking in a CIS blocking buffer at room temperature for 60 seconds, the membranes were probed with various primary antibodies at 4° C. overnight. Membranes were incubated with horseradish peroxidase-conjugated secondary antibodies for 1.5 hours, and finally visualized using enhanced chemiluminescence (ECL; Millipore, Billerica, Mass.). After detachment of previous primary antibodies, the membranes were also probed with GAPDH antibodies, which served as an internal control. Images of western blotting were acquired by UVP BioSpectrum 810, and analyzed by Vision Works LS software (UVP, California, USA).
All the measurements were presented as mean±SD. Statistical significance was computed with one-way ANOVA followed by LSD test with p<0.05. All statistical analyses were conducted using Sigma plot v12.5.

[2] = system: human olfactory neuroepithelial cells (ONCs); test: Western blot analysis of human ONCs (OMP, Golf, βIII tubulin); format: cell-based; details: 0.1 mg/ml monosaccharide monomer, day 9
Method: Human olfactory neuroepithelia were harvested from adult olfactory neuroepithelium during endoscopic sinus surgery. Biopsy specimens were transferred into Hank's balanced salt solution (HBSS), minced finely, and then digested with 0.125% Trypsin/EDTA for 30 minutes at 37° C. After digestion, the pellet was collected by centrifuge and resuspended in the iscove's modified dulbecco's media (IMDM; Invitrogen, Calif., USA) with 10% fetal bovine serum and 1% penicillin/streptomycin Finally, they were seeded to six-wells coated with laminin-co-fibronectin for 21 days, incubated in a humidified atmosphere containing 5% CO2 and 95% air. After 21 days, the medium were changed with induction medium. This induction medium is Dulbecco's Modified Eagle Medium: Nutrient Mixture F-12 (DMEM/F12) (Invitrogen, Calif., USA) supplemented with 2% B-27 serum-free supplement. To prepare the chitosan-containing medium for administration groups, chitosan (C-3646, Sigma-Aldrich, St. Louis, Mo.) was mixed with induction medium (0.1 mg/ml), and adjusted to pH 7.2 with NaOH.
ONC lysates were obtained from individual culture wells using a RIPA lysis buffer containing protease inhibitor cocktail tablets (Roche Diagnostics GmbH). […] Images of western blotting were acquired by UVP BioSpectrum 810, and analyzed by Vision Works LS software (UVP, California, USA). […]

[3] = 0.1 mg/ml monosaccharide monomer

## CC(=O)N[C@H]1C(O)O[C@H](CO)[C@H](O)[C@@H]1O (stereo partly shown) [GalNAc, N-acetylgalactosamine]
[1]; [3]
  expression levels of OMP and Golf: promoted the maturation of ORNs
[2]
  expression levels of OMP: induced positive effects on human ONCs

## N[C@H]1C(O)O[C@H](CO)[C@@H](O)[C@@H]1O (stereo partly shown) [GlcN, glucosamine]
[1]; [3]
  expression levels of OMP and Golf: promoted the maturation of ORNs

## CC(=O)N[C@H]1C(O)O[C@H](CO)[C@@H](O)[C@@H]1O (stereo partly shown) [GlcNAc, N-acetylglucosamine]
[1]; [3]
  expression levels of OMP and Golf: promoted the maturation of ORNs

## CC(=O)N[C@@H]1C(O)O[C@H](CO)[C@@H](O)[C@@H]1O (stereo partly drawn) [ManNAc, N-acetyl-D-mannosamine]
[1]; [3]
  expression levels of OMP and Golf: promoted the maturation of ORNs
[2]
  expression levels of OMP: induced positive effects on human ONCs

## heparan sulfate proteoglycan [HSPG]
[1]; 0.1 mg/ml proteoglycan or glycosaminoglycan
  expression levels of OMP and Golf: promoted expression of mature and functional ORNs
